Our source for the IC50 values is patent US8802721B2, “Thiophene compounds for inflammation and immune-related uses” (Synta Pharmaceuticals Corp., priority 2005, dated 2014).

The test system of test [1] is IL-2 production. The test can be described thus: Inhibition of IL-2 production in PHA-activated Jurkat cells (ELISA). The format is cell-based. The conditions noted are these: Homo sapiens, PHA 2.5 μg/mL, 20 hours. As to the method: Jurkat cells were placed in a 96 well plate (0.5 million cells per well in 1% FBS medium) then a test compound of this invention was added at different concentrations. After 10 minutes, the cells were activated with PHA (final concentration 2.5 μg/mL) and incubated for 20 hours at 37° C. under CO2. The final volume was 200 μL. Following incubation, the cells were centrifuged and the supernatants collected and stored at −70° C. prior to assaying for IL-2 production. A commercial ELISA kit (IL-2 Eli-pair, Diaclone Research, Besancon, France) was used to detect production of IL-2, from which dose response curves were obtained.
(In general: In an ELISA, binding on a coated surface is turned into a signal by an enzyme label.)

For test [2], the target named is ICRAC current in RBL cells (CRAC ion channel) (Rattus norvegicus, UniProt Q5M848). Put plainly: Patch clamp inhibition of ICRAC current in RBL cells. The format is cell-based. The conditions noted are these: whole-cell patch clamp, inward current at −80 mV, read-out: IC50 (concentration which inhibits 50% of the ICRAC current). As to the method:
In general, a whole cell patch clamp method is used to examine the effects of a compound of the invention on a channel that mediates Icrac. In such experiments, a baseline measurement is established for a patched cell. Then a compound to be tested is perfused (or puffed) to cells in the external solution and the effect of the compound on Icrac is measured. A compound that modulates Icrac (e.g., inhibits) is a compound that is useful in the invention for modulating CRAC ion channel activity.
Rat basophilic leukemia cells (RBL-2H3) were grown in DMEM media supplemented with 10% fetal bovine serum in an atmosphere of 95% air/5% CO2. Cells were seeded on glass coverslips 1-3 days before use.
Membrane currents of individual cells were recorded using the whole-cell configuration of the patch clamp technique with an EPC10 (HEKA Electronik, Lambrecht, Germany). Electrodes (2-5 MΩ in resistance) were fashioned from borosilicate glass capillary tubes (Sutter Instruments, Novato, Ca). […]
ICRAC currents were monitored every 2 seconds using a 50 msec protocol, where the voltage was ramped from −100 mV to +100 mV. […]
The ICRAC current level was determined by measuring the inward current amplitude at −80 mV of the voltage ramp in an off-line analysis using MATLAB. The ICRAC current inhibition for each concentration was calculated using peak amplitude in the beginning of the experiment from the same cell. […]
A general note: Patch clamp records ionic current or voltage across a cell membrane.

ICRAC current in RBL cells (CRAC ion channel), sequence (Q5M848 whole entry, looked up, the tested form may be a part): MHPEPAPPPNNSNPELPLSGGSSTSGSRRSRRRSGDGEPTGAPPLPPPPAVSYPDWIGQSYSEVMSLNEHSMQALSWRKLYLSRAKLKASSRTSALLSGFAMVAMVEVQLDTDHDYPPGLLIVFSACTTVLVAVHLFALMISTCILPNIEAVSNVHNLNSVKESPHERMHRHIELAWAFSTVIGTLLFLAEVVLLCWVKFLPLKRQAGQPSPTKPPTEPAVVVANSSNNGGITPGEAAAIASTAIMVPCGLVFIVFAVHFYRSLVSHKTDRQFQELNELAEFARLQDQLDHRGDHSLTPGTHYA

`Cc1ccc(-c2ncco2)cc1-c1ccc(NC(=O)c2c(F)cccc2F)s1` [Compound 119, 2,6-Difluoro-N-[5-(2-methyl-5-oxazol-2-yl-phenyl)-thiophen-2-yl]-benzamide]: in test [1], the IC50 amounted to 94.8 nM.

Consider `COC(=O)c1cccc(-c2sc(NC(=O)c3c(F)cccc3F)cc2C)c1` [Compound 120, 3-[5-(2,6-Difluoro-benzoylamino)-3-methyl-thiophen-2-yl]-benzoic acid methyl ester], for which, in test [1], the IC50 turned out to be 87 nM.

For the compound `COc1ccc(CCCOC(Cn2ccnc2)c2ccc(OC)cc2)cc1` (stereo not shown) [SKF96365], the IC50 in test [2] is 4000 nM.

For `COC(=O)c1ccc(C)c(-c2ccc(C(=O)Nc3c(F)cccc3F)s2)c1` [Compound 3, 3-[5-(2,6-Difluoro-phenylcarbamoyl)-thiophen-2-yl]-4-methyl-benzoic acid methyl ester], the IC50 in test [1] amounted to 6.4 nM. Same read-out and setting: the value for `Cc1cnccc1NC(=O)c1ccc(-c2cc(C(F)(F)F)ccc2Cl)s1` [Compound 2, 5-(2-Chloro-5-trifluoromethyl-phenyl)-thiophene-2-carboxylic acid (3-methyl-pyridin-4-yl)-amide] was 14 nM; that for `O=C(Nc1ccc(-c2cccc(-c3cnco3)c2)s1)c1c(F)cccc1F` [Compound 121, 2,6-Difluoro-N-[5-(3-oxazol-5-yl-phenyl)-thiophen-2-yl]-benzamide] was 164 nM; that for `O=C(Nc1ccc(-c2cccc(C(F)(F)F)c2)s1)c1c(F)cccc1F` [Compound 117, 2,6-Difluoro-N-[5-(3-trifluoromethyl-phenyl)-thiophen-2-yl]-benzamide] was 16.5 nM. In test [1], `COC(=O)c1ccc(C)c(-c2ccc(NC(=O)c3c(F)cccc3F)s2)c1` [Compound 118, 3-[5-(2,6-Difluoro-benzoylamino)-thiophen-2-yl]-4-methyl-benzoic acid methyl ester] gave an IC50 of 104 nM. Consider `O=C(Nc1c(F)cccc1F)c1ccc(-c2cc(C(F)(F)F)ccc2Cl)s1` [Compound 1, 5-(2-Chloro-5-trifluoromethyl-phenyl)-thiophene-2-carboxylic acid (2,6-difluoro-phenyl)-amide], for which the IC50 in test [1] was found to be 3 nM. `COC(=O)c1ccc(C)c(-c2ccc(C(=O)Nc3ccncc3C)s2)c1` [Compound 4, 4-Methyl-3-[5-(3-methyl-pyridin-4-ylcarbamoyl)-thiophen-2-yl]-benzoic acid methyl ester]: in test [1], the IC50 turned out to be 58.5 nM.
